Read-outs that look alike come from different tables or passages of the source.
How the values were obtained:
[1] = target: T1, human butyrylcholinesterase (hBuChE) (Homo sapiens, UniProt P06276); experiment: hBuChE inhibition assay (modified Ellman method, BuTChI substrate); format: biochemical; settings: for IC50: mean ± SEM of three independent measurements, each in triplicate; for % Inhibition hBuChE ± SEM / inhibition at 100 µM: tested at 100 µM compound concentration; for % Inhibition hBuChE ± SEM: 100 µM; for inhibition at 100 µM: read-out: % Inhibition hBuChE ± SEM
POP = settings: previously isolated narcikachnine-type alkaloids; cited from earlier work
[2] = indicated centrally active crossing of the BBB via passive diffusion; cited from earlier work
[3] = target: T1, human butyrylcholinesterase (hBuChE); settings: previously isolated narcikachnine-type alkaloids; cited from earlier work

T1 sequence (P06276 29-602): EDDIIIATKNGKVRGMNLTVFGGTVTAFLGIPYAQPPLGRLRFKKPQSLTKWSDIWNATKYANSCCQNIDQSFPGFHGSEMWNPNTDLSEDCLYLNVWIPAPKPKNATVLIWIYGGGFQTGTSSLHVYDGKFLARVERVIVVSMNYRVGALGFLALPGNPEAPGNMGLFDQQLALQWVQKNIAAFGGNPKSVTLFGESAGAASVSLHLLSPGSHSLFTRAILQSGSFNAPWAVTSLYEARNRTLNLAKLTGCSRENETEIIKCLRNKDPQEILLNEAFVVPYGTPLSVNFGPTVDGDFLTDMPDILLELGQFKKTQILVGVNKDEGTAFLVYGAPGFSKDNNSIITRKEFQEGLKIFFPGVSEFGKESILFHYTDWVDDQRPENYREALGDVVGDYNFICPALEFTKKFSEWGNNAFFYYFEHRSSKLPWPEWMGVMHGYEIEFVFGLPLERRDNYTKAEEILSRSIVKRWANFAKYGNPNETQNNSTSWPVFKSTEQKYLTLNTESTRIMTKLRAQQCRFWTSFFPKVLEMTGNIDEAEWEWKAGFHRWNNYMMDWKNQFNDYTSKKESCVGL

COc1cc(-c2cccc3c2N(C)CC3)c(CN2CC[C@@]34C=C[C@H](O)C[C@@H]3Oc3c(OC)ccc(c34)C2)cc1O [narciabduliine (2), narciabduliine]
IC50 [1]: 3.44 ± 0.02 µM
% Inhibition hBuChE ± SEM [1]: 94.1 ± 0.2%
inhibition at 100 µM [1]: > 90%

COc1cc(-c2cccc3c2N(C)CC3)c(CN2CC[C@@]34C=C[C@H](O)C[C@@H]3Oc3c(OC)ccc(c34)C2)c(OC)c1OC [narcieliine]
IC50 (POP): 163 ± 13 µM
in vitro permeability (Pe) [2]: 14.1 ± 1.0 × 10^−6 cm·s^−1
IC50 [3]: 1.3 ± 0.3 µM

COc1cc2c(cc1O)[C@@H](O)O[C@@H]1CC=C3CCN(C)[C@H]3[C@H]21 [9-O-demethyllycorenine (1), 9-O-demethyllycorenine]
IC50 [1]: > 100 µM
% Inhibition hBuChE ± SEM [1]: almost devoid of cholinesterase inhibitory activity
inhibition at 100 µM [1]: 30.2 ± 0.8%

COc1ccc2c3c1O[C@H]1C[C@@H](O)C=C[C@@]31CCN(C)C2 [galantamine]
inhibition at 100 µM [1]: 68.2 ± 1.2%

COc1ccc2c3c1OC1CC(=O)CCC31CCN(Cc1cc3c(cc1-c1cccc4c1N(C)CC4)OCO3)C2 (stereo not shown) [narcimatuline]
IC50 (POP): 29.2 ± 1 µM
IC50 [3]: 5.9 ± 0.2 µM

COc1ccc2c3c1OC1CC(O)CCC31CCN(Cc1cc3c(cc1-c1cccc4ccn(C)c14)OCO3)C2 (stereo not shown) [narcipavline]
IC50 [3]: 24.4 ± 1.2 µM

Source: publication PMC7956344, “Structure Elucidation and Cholinesterase Inhibition Activity of Two New Minor Amaryllidaceae Alkaloids” (Molecules, 2021)
